Consider 41 compounds from patent US9624215B2, “Amine derivative or salt thereof” (TOYAMA CHEMICAL CO., LTD., priority 2012, dated 2017).

Where only a bound is given, the exact number is not on record here.

This test relates to normal human neonatal foreskin epidermal keratinocytes (NHEK-F). Kind of test: Cell proliferation inhibition test. The settings on record: Keratinocyte, 72 h, NHEK-F cells, three days incubation, ATPlite or CellTiterGlo, read-out: IC50 (concentration of the compound at which the cell count is reduced by 50%). In kind it is cell-based. Summed up:
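IC50 is the compound level halving cell count relative to untreated wells, with counts from ATP-based luminescence (ATPlite or CellTiterGlo). Readout followed 3 days of compound exposure of overnight-attached neonatal foreskin keratinocytes (2×10^3/well, Humedia-EG2 medium).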
As to `O=C(O)c1cc(C2CC2)cnc1Nc1ccc2c(ccn2Cc2cccnc2)c1` [Example 137, 5-cyclopropyl-2-((1-(pyridin-3-ylmethyl)-1H-indol-5-yl)amino)nicotinic acid], the IC50 is 10 to 100 nM.
Next, `O=C(O)c1cc(C2CC2)cnc1Nc1ccc2c(ccn2Cc2ccc(Cl)cc2)c1` [Example 461, 2-((1-(4-Chlorobenzyl)-1H-indol-5-yl)amino)-5-cyclopropylnicotinic acid]: no more than 10 nM; `O=C(O)c1cc(C2CC2)cnc1Nc1cnc2c(ccn2CC2CCCCC2)c1` [Example 549]: no more than 10 nM.
The same measure for `O=C(O)c1cc(Cl)ccc1Nc1ccc2c(ccn2Cc2cccc(OCc3ccc4ccccc4n3)c2)c1` [Example 249, 5-chloro-2-((1-(3-(quinolin-2-ylmethoxy)benzyl)-1H-indol-5-yl)amino)benzoic acid]: no more than 10 nM; for `O=C(O)c1cc(Cl)ccc1Nc1ccc2c(c1)c(Cc1ccccc1)cn2Cc1ccccc1` [Example 88, 5-chloro-2-((1,3-dibenzyl-1H-indol-5-yl)amino)benzoic acid]: 10 to 100 nM.
Take `O=C(O)c1cc(Cl)ccc1Nc1ccc2c(ccn2Cc2cccc(OCCN3CCOCC3)c2)c1` [Example 296, 5-chloro-2-((1-(3-(2-morpholinoethoxyl)benzyl)-1H-indol-5-yl)amino)benzoic acid]: the IC50 is 10 to 100 nM.
Next, `O=C(O)c1cc(Cl)ccc1Nc1ccc2c(c1)c(C(=O)c1ccccc1)cn2Cc1ccccc1` [Example 86, 2-((3-benzoyl-1-benzyl-1H-indol-5-yl)amino)-5-chlorobenzoic acid]: 100 to 1000 nM; `O=C(O)c1cc(C2CC2)cnc1Nc1ccc2c(ccn2Cc2cccc(O)c2)c1` [Example 505, 5-cyclopropyl-2-((1-(3-hydroxybenzyl)-1H-indol-5-yl)amino)nicotinic acid]: no more than 10 nM.
Next, `Cc1ccccc1-c1cn(C)c2ccc(Nc3ncc(C4CC4)cc3C(=O)O)cc12` [Example 567, 5-cyclopropyl-2-((1-methyl-3-(2-methylphenyl)-1H-indol-5-yl)amino)nicotinic acid]: 10 to 100 nM; `CC(C)n1ccc2cc(Nc3ncc(C4CC4)cc3C(=O)O)ccc21` [Example 123, 5-cyclopropyl-2-((1-isopropyl-1H-indol-5-yl)amino)nicotinic acid]: 10 to 100 nM; `Cn1c(C(C)(C)C)cc2cc(Nc3ncc(C4CC4)cc3C(=O)O)ccc21` [Example 157, 2-((2-(tert-butyl)-1-methyl-1H-indol-5-yl)amino)-5-cyclopropylnicotinic acid]: 100 to 1000 nM.
Next, `CCn1c2c(c3cc(Nc4ncc(C5CC5)cc4C(=O)O)ccc31)CCCC2` [Example 166, 5-cyclopropyl-2-((9-ethyl-2,3,4,9-tetrahydro-1H-carbazol-6-yl)amino)nicotinic acid]: 100 to 1000 nM; `O=C(O)c1cc(C2CC2)cnc1Nc1ccc2c(ccn2C(=O)C2CCCCC2)c1` [Example 583, 2-((1-(cyclohexylcarbonyl)-1H-indol-5-yl)amino)-5-cyclopropylnicotinic acid]: 10 to 100 nM; `Cn1cc(-c2ccc(F)cc2)c2cc(Nc3ncc(C4CC4)cc3C(=O)O)ccc21` [Example 561, 5-cyclopropyl-2-((3-(4-fluorophenyl)-1-methyl-1H-indol-5-yl)amino)nicotinic acid]: 10 to 100 nM.
Turning to `Cn1ccc2cc(Nc3ncc(C4CC4)cc3C(=O)O)cc(C3CCCCC3)c21` [Example 607, 2-((7-cyclohexyl-1-methyl-1H-indol-5-yl)amino)-5-cyclopropylnicotinic acid], the IC50 is no more than 10 nM.
Next, `COCCNc1cccc(Cn2ccc3cc(Nc4ncc(C5CC5)cc4C(=O)O)ccc32)c1` [Example 510, 5-cyclopropyl-2-((1-(3-((2-methoxyethyl)amino)benzyl)-1H-indol-5-yl)amino)nicotinic acid]: no more than 10 nM; `O=C(O)c1cc(Cl)ccc1Nc1ccc2c(ccn2Cc2ccccn2)c1` [Example 341, 5-chloro-2-((1-(pyridin-2-ylmethyl)-1H-indol-5-yl)amino)benzoic acid]: 10 to 100 nM.
The same measure for `Cn1ccc2cc(Nc3ncc(C4CC4)cc3C(=O)O)cc(C3CC3)c21` [Example 409, 5-cyclopropyl-2-((7-cyclopropyl-1-methyl-1H-indol-5-yl)amino)nicotinic acid]: 10 to 100 nM.
Next, `CC(C)(C)c1cc2cc(Nc3ncc(C4CC4)cc3C(=O)O)ccc2[nH]1` [Example 389, 2-((2-(tert-butyl)-1H-indol-5-yl)amino)-5-cyclopropylnicotinic acid]: 100 to 1000 nM.
As for `O=C(O)c1cc(Cl)ccc1Nc1ccc2c(ccn2-c2ccccn2)c1` [Example 311, 5-chloro-2-((1-(pyridin-2-yl)-1H-indol-5-yl)amino)benzoic acid], the IC50 was no more than 10 nM.
The same measure for `Cc1cc2cc(Nc3ncc(C4CC4)cc3C(=O)O)ccc2n1C` [Example 391, 5-cyclopropyl-2-((1,2-dimethyl-1H-indol-5-yl)amino)nicotinic acid]: 100 to 1000 nM; for `CCCCCn1ccc2cc(Nc3ncc(C4CC4)cc3C(=O)O)cc(CCCOC)c21` [Example 610, 5-cyclopropyl-2-((7-(3-methoxypropyl)-1-pentyl-1H-indol-5-yl)amino)nicotinic acid]: no more than 10 nM.
The same measure for `O=C(O)c1cc(C2CC2)cnc1Nc1ccc2c(ccn2CC2CC2)c1` [Example 146, 5-cyclopropyl-2-((1-(cyclopropylmethyl)-1H-indol-5-yl)amino)nicotinic acid]: 10 to 100 nM.
With `O=C(O)c1cc(C2CC2)cnc1Nc1ccc2[nH]cc(-c3ccccc3)c2c1` [Example 156, 5-cyclopropyl-2-((3-phenyl-1H-indol-5-yl)amino)nicotinic acid], the IC50 lay in the range of 100 to 1000 nM.
Next, `Cn1cc(C2CC2)c2cc(Nc3ncc(C4CC4)cc3C(=O)O)ccc21` [Example 393, 5-cyclopropyl-2-((3-cyclopropyl-1-methyl-1H-indol-5-yl)amino)nicotinic acid]: 10 to 100 nM; `O=C(O)c1cc(C2CC2)cnc1Nc1ccc2c(c1)CCCN2Cc1ccccc1` [Example 183, 2-((1-benzyl-1,2,3,4-tetrahydroquinolin-6-yl)amino)-5-cyclopropylnicotinic acid]: 10 to 100 nM.
The same measure for `O=C(O)c1cc(Cl)ccc1Nc1ccc2c(ccn2Cc2cccc(OCc3ccccn3)c2)c1` [Example 19, 5-chloro-2-((1-(3-(pyridin-2-ylmethoxy)benzyl)-1H-indol-5-yl)amino)benzoic acid]: no more than 10 nM.
As to `O=C(O)c1cc(C2CC2)cnc1Nc1ccc2c(cnn2Cc2ccccc2)c1` [Example 395, 2-((1-benzyl-1H-indazol-5-yl)amino)-5-cyclopropylnicotinic acid], the IC50 lay within 10 to 100 nM.
Turning to `O=C(O)c1cc(-c2ccccc2)ccc1Nc1ccc2c(ccn2Cc2ccccc2)c1` [Example 359, 4-((1-Benzyl-1H-indol-5-yl)amino)-[1,1′-biphenyl]-3-carboxylic acid], the IC50 lay within 10 to 100 nM.
Next, `O=C(O)c1cc(Cl)ccc1Nc1ccc2c(ccn2Cc2cccnc2)c1` [Example 349, 5-chloro-2-((1-(pyridin-3-ylmethyl)-1H-indol-5-yl)amino)benzoic acid]: 100 to 1000 nM; `CC(C)Cn1ccc2c(Nc3ncc(C4CC4)cc3C(=O)O)cccc21` [Example 431, 5-cyclopropyl-2-((1-isobutyl-1H-indol-4-yl)amino)nicotinic acid]: no more than 10 nM.
Next, `CS(=O)(=O)NC(=O)c1cc(C2CC2)cnc1Nc1ccc2c(ccn2-c2ccccc2)c1` [Example 159, 5-cyclopropyl-N-(methylsulfonyl)-2-((1-phenyl-1H-indol-5-yl)amino)nicotinamide]: 10 to 100 nM.
The same measure for `COc1ccc(Cn2ccc3cc(Nc4ccc(Cl)cc4C(=O)O)ccc32)cc1` [Example 347, 5-chloro-2-((1-(4-methoxybenzyl)-1H-indol-5-yl)amino)benzoic acid]: 10 to 100 nM.
Regarding `COCCOc1cccc(Cn2ccc3cc(Nc4ncc(C5CC5)cc4C(=O)O)ccc32)c1` [Example 506, 5-cyclopropyl-2-((1-(3-(2-methoxyethoxyl)benzyl)-1H-indol-5-yl)amino)nicotinic acid], the IC50 is no more than 10 nM.
Regarding `Cc1cc2cc(Nc3ncc(C4CC4)cc3C(=O)O)ccc2n1CC(C)C` [Example 550, 5-cyclopropyl-2-((1-isobutyl-2-methyl-1H-indol-5-yl)amino)nicotinic acid], the IC50 is 10 to 100 nM.
Turning to `CC(C)c1ccc(Nc2ccc3c(ccn3Cc3ccccc3)c2)c(C(=O)O)c1` [Example 114, 2-((1-benzyl-1H-indol-5-yl)amino)-5-isopropylbenzoic acid], the IC50 was no more than 10 nM.
Next, `Cc1ccccc1-c1cc(Nc2ncc(C3CC3)cc2C(=O)O)cc2ccn(C)c12` [Example 476, 5-cyclopropyl-2-((1-methyl-7-(o-tolyl)-1H-indol-5-yl)amino)nicotinic acid]: no more than 10 nM; `CC(C)Cn1ccc2ccc(Nc3ncc(C4CC4)cc3C(=O)O)cc21` [Example 521, 5-cyclopropyl-2-((1-isobutyl-1H-indol-6-yl)amino)nicotinic acid]: no more than 10 nM.
Turning to `O=C(O)c1cc(Cl)ccc1Nc1ccc2c(ccn2-c2cscn2)c1` [Example 271, 5-chloro-2-((1-(thiazol-4-yl)-1H-indol-5-yl)amino)benzoic acid], the IC50 lay in the range of 10 to 100 nM.
The same measure for `CC(C)n1ccc2ccc(Nc3ncc(C4CC4)cc3C(=O)O)cc21` [Example 519, 5-cyclopropyl-2-((1-isopropyl-1H-indol-6-yl)amino)nicotinic acid]: 10 to 100 nM.
The same measure for `Cn1ccc2cc(Nc3ncc(C4CC4)cc3C(=O)O)cc(-c3ccccn3)c21` [Example 500, 5-cyclopropyl-2-((1-methyl-7-(pyridin-2-yl)-1H-indol-5-yl)amino)nicotinic acid]: 10 to 100 nM.
